Laboratory results published in PMC7038975 (Nucleic Acids Research, 2019).

Biological target: dihydropyrimidinase (DHP) (Homo sapiens, UniProt Q14117)
Test: HPLC assay of […],6-dihydrouracil
Assay type: biochemical

Sequence of dihydropyrimidinase (DHP) (Q14117 whole entry): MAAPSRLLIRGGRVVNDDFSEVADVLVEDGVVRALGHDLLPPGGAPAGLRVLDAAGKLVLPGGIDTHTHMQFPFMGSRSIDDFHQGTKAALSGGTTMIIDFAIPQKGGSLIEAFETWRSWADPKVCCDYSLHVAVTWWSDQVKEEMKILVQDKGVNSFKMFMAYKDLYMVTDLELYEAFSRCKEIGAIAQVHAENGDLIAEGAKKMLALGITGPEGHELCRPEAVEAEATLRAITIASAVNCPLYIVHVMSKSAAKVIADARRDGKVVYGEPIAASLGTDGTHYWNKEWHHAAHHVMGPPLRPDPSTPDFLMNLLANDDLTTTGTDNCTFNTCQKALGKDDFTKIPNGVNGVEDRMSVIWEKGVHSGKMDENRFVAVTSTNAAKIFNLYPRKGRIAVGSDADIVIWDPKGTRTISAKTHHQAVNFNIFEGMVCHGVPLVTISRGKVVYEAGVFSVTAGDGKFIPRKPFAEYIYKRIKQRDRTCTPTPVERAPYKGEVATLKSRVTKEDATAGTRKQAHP

IC50: ~6 µM
SMILES: O=C1c2c(O)cc(O)cc2O[C@H](c2cc(O)c(O)c(O)c2)[C@H]1O [dihydromyricetin]
